Assay results: patent US20230257396A1, “MACROCYCLES AND THEIR USE” (BLOSSOMHILL THERAPEUTICS, INC., priority 2020, published 2023)
Changes are numbered by the printed parent chain.

Columns and labels:
Assay in all cases: KINOMEscan kinase binding assay (Eurofins/DiscoveRx), % Ctrl
kinases [1] = biological target: T1, kinases (Homo sapiens, UniProt P17948)
T1 construct: purchased Eurofins/DiscoveRx; host or cells: E. coli BL21-derived host (T7 phage display) for most kinases; HEK-293 for the rest
T1 sequence (P17948 27-1338): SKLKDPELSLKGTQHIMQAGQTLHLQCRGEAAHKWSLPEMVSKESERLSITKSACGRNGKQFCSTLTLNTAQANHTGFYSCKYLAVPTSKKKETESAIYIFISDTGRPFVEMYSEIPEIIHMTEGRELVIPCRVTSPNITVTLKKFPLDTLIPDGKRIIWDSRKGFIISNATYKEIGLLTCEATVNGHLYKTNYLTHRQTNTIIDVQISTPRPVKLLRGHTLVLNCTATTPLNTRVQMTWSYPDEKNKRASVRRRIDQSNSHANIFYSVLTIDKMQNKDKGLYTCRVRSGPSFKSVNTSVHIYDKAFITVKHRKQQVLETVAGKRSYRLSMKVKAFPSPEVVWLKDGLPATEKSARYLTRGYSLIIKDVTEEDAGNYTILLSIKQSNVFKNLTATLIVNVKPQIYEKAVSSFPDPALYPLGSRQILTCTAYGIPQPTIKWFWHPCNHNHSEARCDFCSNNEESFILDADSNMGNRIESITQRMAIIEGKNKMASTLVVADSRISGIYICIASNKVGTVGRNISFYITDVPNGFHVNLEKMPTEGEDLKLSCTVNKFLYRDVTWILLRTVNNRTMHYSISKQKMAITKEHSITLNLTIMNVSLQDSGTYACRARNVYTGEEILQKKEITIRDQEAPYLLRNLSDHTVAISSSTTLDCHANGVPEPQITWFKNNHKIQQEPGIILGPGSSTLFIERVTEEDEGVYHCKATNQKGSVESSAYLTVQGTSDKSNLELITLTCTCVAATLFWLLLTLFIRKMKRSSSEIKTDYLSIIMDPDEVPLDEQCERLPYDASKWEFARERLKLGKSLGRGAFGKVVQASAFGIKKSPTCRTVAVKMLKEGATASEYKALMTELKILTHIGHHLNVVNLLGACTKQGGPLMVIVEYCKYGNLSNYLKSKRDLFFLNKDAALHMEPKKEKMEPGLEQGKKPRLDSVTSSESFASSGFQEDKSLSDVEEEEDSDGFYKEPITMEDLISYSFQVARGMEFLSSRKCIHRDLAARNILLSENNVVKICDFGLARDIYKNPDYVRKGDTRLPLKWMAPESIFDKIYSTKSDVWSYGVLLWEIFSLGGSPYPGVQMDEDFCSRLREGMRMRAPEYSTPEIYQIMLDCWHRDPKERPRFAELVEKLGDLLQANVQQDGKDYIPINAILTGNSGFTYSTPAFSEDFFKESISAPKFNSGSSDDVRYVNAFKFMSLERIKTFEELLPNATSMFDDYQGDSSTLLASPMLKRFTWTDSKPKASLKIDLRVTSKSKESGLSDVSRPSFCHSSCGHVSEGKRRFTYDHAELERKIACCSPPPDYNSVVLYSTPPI
How it was run: (§1)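 Competition binding, 1 h RT: phage-tagged or HEK-293-expressed DNA-tagged kinase + immobilized ligand + compound. Eluate kinase by qPCR. % Ctrl = (test − positive ctrl)/(negative ctrl − positive ctrl) × 100; lower means stronger binding.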

kinases [2] = biological target: T2, kinases (Homo sapiens, UniProt P07949, V804L)
T2 construct: purchased Eurofins/DiscoveRx; host or cells: E. coli BL21-derived host (T7 phage display) for most kinases; HEK-293 for the rest
T2 sequence (P07949 29-1114 V804L): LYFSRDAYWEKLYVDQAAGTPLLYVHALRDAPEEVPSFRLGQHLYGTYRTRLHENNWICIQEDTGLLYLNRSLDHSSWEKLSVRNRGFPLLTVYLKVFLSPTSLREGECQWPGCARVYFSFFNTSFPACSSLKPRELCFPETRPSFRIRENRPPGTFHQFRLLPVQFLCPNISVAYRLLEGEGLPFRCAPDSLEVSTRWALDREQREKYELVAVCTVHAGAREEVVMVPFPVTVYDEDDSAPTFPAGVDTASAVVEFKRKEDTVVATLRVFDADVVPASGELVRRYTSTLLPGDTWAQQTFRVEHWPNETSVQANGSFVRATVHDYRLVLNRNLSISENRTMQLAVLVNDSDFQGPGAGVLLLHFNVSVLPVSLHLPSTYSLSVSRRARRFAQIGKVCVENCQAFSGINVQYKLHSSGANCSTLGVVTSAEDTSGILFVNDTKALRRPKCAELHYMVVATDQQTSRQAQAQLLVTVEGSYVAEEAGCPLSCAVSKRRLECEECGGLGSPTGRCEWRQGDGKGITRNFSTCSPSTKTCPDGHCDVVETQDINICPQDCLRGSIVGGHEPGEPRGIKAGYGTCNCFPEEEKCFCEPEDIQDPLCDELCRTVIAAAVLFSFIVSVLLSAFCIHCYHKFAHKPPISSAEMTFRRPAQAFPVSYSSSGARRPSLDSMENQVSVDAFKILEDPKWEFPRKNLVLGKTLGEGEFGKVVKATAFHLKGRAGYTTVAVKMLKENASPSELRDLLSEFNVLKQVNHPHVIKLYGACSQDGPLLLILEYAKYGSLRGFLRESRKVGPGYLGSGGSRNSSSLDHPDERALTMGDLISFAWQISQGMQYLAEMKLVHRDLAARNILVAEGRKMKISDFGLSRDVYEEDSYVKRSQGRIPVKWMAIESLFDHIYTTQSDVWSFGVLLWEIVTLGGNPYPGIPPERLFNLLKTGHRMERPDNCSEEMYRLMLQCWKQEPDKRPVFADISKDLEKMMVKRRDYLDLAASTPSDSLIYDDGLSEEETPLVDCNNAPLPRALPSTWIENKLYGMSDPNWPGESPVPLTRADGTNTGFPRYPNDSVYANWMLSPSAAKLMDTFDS
How it was run: as §1

kinases [3] = biological target: T3, kinases (Homo sapiens, UniProt P36888, R834Q)
T3 construct: purchased Eurofins/DiscoveRx; host or cells: E. coli BL21-derived host (T7 phage display) for most kinases; HEK-293 for the rest
T3 sequence (P36888 27-993 R834Q): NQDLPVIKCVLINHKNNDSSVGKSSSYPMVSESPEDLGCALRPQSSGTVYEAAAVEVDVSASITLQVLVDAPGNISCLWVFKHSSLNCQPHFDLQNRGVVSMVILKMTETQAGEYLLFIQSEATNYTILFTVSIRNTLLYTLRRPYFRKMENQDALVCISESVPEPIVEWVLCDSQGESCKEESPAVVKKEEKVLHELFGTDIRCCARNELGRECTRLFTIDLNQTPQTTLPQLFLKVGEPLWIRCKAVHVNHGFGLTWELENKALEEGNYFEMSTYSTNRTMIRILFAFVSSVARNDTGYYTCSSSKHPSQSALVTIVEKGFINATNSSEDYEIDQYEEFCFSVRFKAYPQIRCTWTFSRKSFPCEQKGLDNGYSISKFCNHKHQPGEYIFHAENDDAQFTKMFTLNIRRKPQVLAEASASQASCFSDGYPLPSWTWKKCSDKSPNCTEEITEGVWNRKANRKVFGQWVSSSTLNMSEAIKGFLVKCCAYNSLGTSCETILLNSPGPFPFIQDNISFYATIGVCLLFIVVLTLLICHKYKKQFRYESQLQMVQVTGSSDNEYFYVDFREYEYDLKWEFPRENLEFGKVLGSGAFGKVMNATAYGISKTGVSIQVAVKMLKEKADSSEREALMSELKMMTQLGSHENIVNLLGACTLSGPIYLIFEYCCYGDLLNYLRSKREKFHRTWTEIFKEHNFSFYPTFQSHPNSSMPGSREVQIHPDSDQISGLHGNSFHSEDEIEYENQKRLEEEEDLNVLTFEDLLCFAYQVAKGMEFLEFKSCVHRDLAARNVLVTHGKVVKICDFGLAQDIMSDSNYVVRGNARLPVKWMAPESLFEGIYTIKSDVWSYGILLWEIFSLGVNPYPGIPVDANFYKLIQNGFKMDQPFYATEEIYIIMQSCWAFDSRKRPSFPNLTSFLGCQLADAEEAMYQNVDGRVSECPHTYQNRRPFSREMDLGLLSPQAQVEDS
How it was run: as §1

kinases [4] = biological target: T4, kinases (Homo sapiens, UniProt P36888, D835H)
T4 construct: purchased Eurofins/DiscoveRx; host or cells: E. coli BL21-derived host (T7 phage display) for most kinases; HEK-293 for the rest
T4 sequence (P36888 27-993 D835H): T3 sequence (P36888 27-993 R834Q) with Q808R, D809H
How it was run: as §1

kinases [5] = biological target: T5, kinases (Homo sapiens, UniProt P00533, T790M)
T5 construct: purchased Eurofins/DiscoveRx; host or cells: E. coli BL21-derived host (T7 phage display) for most kinases; HEK-293 for the rest
How it was run: as §1

kinases [6] = biological target: T6, kinases (Homo sapiens, UniProt P00519, F317L)
T6 construct: purchased Eurofins/DiscoveRx; host or cells: E. coli BL21-derived host (T7 phage display) for most kinases; HEK-293 for the rest
T6 sequence (P00519 whole entry F317L): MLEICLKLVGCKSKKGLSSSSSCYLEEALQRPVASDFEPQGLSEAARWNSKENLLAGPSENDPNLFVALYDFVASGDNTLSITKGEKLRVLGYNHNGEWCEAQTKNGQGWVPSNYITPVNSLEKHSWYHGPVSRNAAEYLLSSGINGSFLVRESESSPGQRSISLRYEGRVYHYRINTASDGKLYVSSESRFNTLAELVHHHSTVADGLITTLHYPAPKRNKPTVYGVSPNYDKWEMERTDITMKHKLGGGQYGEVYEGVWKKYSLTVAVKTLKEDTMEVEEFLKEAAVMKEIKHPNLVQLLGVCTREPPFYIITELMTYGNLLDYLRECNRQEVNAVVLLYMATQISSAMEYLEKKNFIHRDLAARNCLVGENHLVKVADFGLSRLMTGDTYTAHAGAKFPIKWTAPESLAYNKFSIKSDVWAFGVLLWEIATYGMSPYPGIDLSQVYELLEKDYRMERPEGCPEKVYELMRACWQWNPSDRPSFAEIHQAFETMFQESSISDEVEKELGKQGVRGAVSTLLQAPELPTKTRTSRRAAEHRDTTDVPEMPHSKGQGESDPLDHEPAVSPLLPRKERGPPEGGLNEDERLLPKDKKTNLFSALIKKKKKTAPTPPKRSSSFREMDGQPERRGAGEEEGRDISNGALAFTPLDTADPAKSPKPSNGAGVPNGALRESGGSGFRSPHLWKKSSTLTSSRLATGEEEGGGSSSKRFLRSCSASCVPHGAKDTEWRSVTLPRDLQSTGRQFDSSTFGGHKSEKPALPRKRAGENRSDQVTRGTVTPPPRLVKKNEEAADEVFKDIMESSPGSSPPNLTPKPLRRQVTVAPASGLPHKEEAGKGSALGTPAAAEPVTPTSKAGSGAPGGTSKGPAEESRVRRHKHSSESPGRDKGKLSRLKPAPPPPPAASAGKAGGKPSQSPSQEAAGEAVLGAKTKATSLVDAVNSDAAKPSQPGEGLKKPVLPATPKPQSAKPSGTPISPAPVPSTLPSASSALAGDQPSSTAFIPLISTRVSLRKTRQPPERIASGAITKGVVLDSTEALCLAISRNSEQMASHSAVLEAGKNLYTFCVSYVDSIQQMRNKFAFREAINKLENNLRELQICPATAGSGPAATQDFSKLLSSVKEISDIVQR
How it was run: as §1

[7] = 1 μM; ABL1(F317L)-nonphosphorylated
[8] = 1 μM; ABL1(F317L)-phosphorylated
[9] = 1 μM; target ABL1(F317L)-nonphosphorylated
[10] = 1 μM; target ABL1(F317L)-phosphorylated
[11] = target ABL1(F317L)-nonphosphorylated; 1 μM
[12] = target ABL1(F317L)-phosphorylated; 1 μM

Structure (SMILES) | % Ctrl, FLT1 (kinases [1]; 1 μM; FLT1) [% Ctrl] | % Ctrl, RET(V804L) (kinases [2]; 1 μM; RET(V804L)) [% Ctrl] | % Ctrl, FLT3(R834Q) (kinases [3]; 1 μM; FLT3(R834Q)) [% Ctrl] | % Ctrl, FLT3(D835H) (kinases [4]; 1 μM; FLT3(D835H)) [% Ctrl] | % Ctrl, EGFR(T790M) (kinases [5]; 1 μM; EGFR(T790M)) [% Ctrl] | % Ctrl, ABL1(F317L)-nonphosphorylated (kinases [6]; [7]) [% Ctrl] | % Ctrl, ABL1(F317L)-phosphorylated (kinases [6]; [8]) [% Ctrl] | % Ctrl, FLT1 (kinases [1]; target FLT1; 1 μM) [% Ctrl] | % Ctrl, RET(V804L) (kinases [2]; target RET(V804L); 1 μM) [% Ctrl] | % Ctrl, FLT3(R834Q) (kinases [3]; target FLT3(R834Q); 1 μM) [% Ctrl] | % Ctrl, FLT3(D835H) (kinases [4]; target FLT3(D835H); 1 μM) [% Ctrl] | % Ctrl, EGFR(T790M) (kinases [5]; target EGFR(T790M); 1 μM) [% Ctrl] | % Ctrl, ABL1(F317L)-nonphosphorylated (kinases [6]; [11]) [% Ctrl] | % Ctrl, ABL1(F317L)-phosphorylated (kinases [6]; [12]) [% Ctrl] | other results
Cc1cc2c([nH]1)/C=C1\C(=O)Nc3ccc(cc31)-c1c(noc1C)COCCN(C)C2=O [Ex. 128, [3a(4)Z]-6,9,16-trimethyl-1,11-dihydro-2H,13H-1,17-(ethanediylidene)[1,4]oxazolo[4,3-m]dipyrrolo[3,2-f:3′,4′-i][1,4]oxazacyclopentadecine-3,8(5H,9H)-dione] | 85 | 56 | 68 | 23 | 75 | 85 | 58 |  |  |  |  |  |  |  | 
Cc1cc2c([nH]1)/C=C1\C(=O)Nc3ccc(cc31)-c1ccnn1CCNCCNC2=O [Ex. 43, [19a(20)Z]-2-methyl-5,6,7,8,9,10-hexahydro-15,17-(ethanediylidene)pyrazolo[1,5-g]dipyrrolo[3,4-k:2′,3′-n][1,4,7]triazacyclohexadecine-4,19(1H,18H)-dione] | 96 | 100 | 85 | 93 | 100 | 63 | 90 |  |  |  |  |  |  |  | 
Cc1cc2c([nH]1)/C=C1\C(=O)Nc3ccc(cc31)O[C@@H](C)COCCN(C)C2=O [Ex. 92, [10S,16a(17)Z]-2,5,10-trimethyl-6,7,9,10-tetrahydro-1H-12,14-(ethanediylidene)dipyrrolo[3,2-i:3′,4′-l][1,4,7]dioxazacyclopentadecine-4,16(5H,15H)-dione] | 90 | 43 | 75 | 32 | 100 | 6.5 | 76 |  |  |  |  |  |  |  | 
Cc1cc2c([nH]1)/C=C1\C(=O)Nc3ccc(cc31)-c1ccnn1CCOCCN(C)C2=O [Ex. 41, [19a(20)Z]-2,5-dimethyl-6,7,9,10-tetrahydro-1H-15,17-(ethanediylidene)pyrazolo[1,5-d]dipyrrolo[3,4-h:2′,3′-k][1,4,14]oxadiazacyclohexadecine-4,19(5H,18H)-dione] | 81 | 17 | 15 | 5.2 | 36 | 26 | 53 |  |  |  |  |  |  |  | 
Cc1cc2c([nH]1)/C=C1\C(=O)Nc3cnc(cc31)-c1cnn(C)c1CN(C)CCN(C)C2=O [Ex. 172, [3a(4)Z]-6,9,12,14-tetramethyl-9,10,11,12,13,14-hexahydro-17,1-(azenometheno)pyrazolo[4,3-m]dipyrrolo[3,2-f:3′,4′-i][1,4]diazacyclopentadecine-3,8(2H,5H)-dione] |  |  |  |  |  |  |  |  |  |  |  |  |  |  | % Ctrl, FLT1 (kinases [1]; 1 μM; target FLT1): 26 % Ctrl; % Ctrl, RET(V804L) (kinases [2]; 1 μM; target RET(V804L)): 0.5 % Ctrl; % Ctrl, FLT3(R834Q) (kinases [3]; 1 μM; target FLT3(R834Q)): 16 % Ctrl; % Ctrl, FLT3(D835H) (kinases [4]; 1 μM; target FLT3(D835H)): 4.2 % Ctrl; % Ctrl, EGFR(T790M) (kinases [5]; 1 μM; target EGFR(T790M)): 22 % Ctrl; % Ctrl, ABL1(F317L)-nonphosphorylated (kinases [6]; [9]): 7.1 % Ctrl; % Ctrl, ABL1(F317L)-phosphorylated (kinases [6]; [10]): 1.9 % Ctrl
Cc1cc2c([nH]1)/C=C1\C(=O)Nc3ccc(cc31)-c1c(noc1C)CNCCN(C)C2=O [Ex. 139, [3a(4)Z]-6,9,16-trimethyl-10,11,12,13-tetrahydro-2H-1,17-(ethanediylidene)[1,2]oxazolo[4,3-m]dipyrrolo[3,2-f:3′,4′-i][1,4]diazacyclopentadecine-3,8(5H,9H)-dione] |  |  |  |  |  |  |  | 65 | 15 | 39 | 14 | 36 | 48 | 39 | 
Cc1nn(C)c2c1-c1ccc3c(c1)/C(=C/c1[nH]ccc1C(=O)N(C)CCCO2)C(=O)N3 [Ex. 150, [3a(4)Z]-9,14,16-trimethyl-10,11,13,14-tetrahydro-2H-1,17-(ethanediylidene)pyrazolo[4,3-m]dipyrrolo[3,2-f:3′,4′-i][1,4]oxazacyclopentadecine-3,8(5H,9H)-dione] |  |  |  |  |  |  |  | 100 | 77 | 69 | 62 | 86 | 87 | 82 | 
Cc1cc2c([nH]1)/C=C1\C(=O)Nc3ccc(cc31)-c1c(C)nn(C)c1COCCN(C)C2=O [Ex. 146, [3a(4)Z]-6,9,14,16-tetramethyl-10,11,13,14-tetrahydro-2H-1,17-(ethanediylidene)pyrazolo[4,3-m]dipyrrolo[3,2-f:3′,4′-i][1,4]oxazacyclopentadecine-3,8(5H,9H)-dione] |  |  |  |  |  |  |  | 100 | 3 | 97 | 5.7 | 57 | 89 | 89 | 
Cc1cc2c([nH]1)/C=C1\C(=O)Nc3ccc(cc31)-c1c(noc1C(C)C)COCCN(C)C2=O [Ex. 161, [3a(4)Z]-9-methyl-16-(propan-2-yl)-10,11-dihydro-2H,13H-1,17-(ethanediylidene)[1,2]oxazolo[4,3-m]dipyrrolo[3,2-f:3′,4′-i][1,4]oxazacyclopentadecine-3,8(5H,9H)-dione] |  |  |  |  |  |  |  |  |  |  |  |  |  |  | % Ctrl, FLT1 (kinases [1]; 1 μM; target FLT1): 82 % Ctrl; % Ctrl, RET(V804L) (kinases [2]; 1 μM; target RET(V804L)): 72 % Ctrl; % Ctrl, FLT3(R834Q) (kinases [3]; 1 μM; target FLT3(R834Q)): 100 % Ctrl; % Ctrl, FLT3(D835H) (kinases [4]; 1 μM; target FLT3(D835H)): 48 % Ctrl; % Ctrl, EGFR(T790M) (kinases [5]; 1 μM; target EGFR(T790M)): 100 % Ctrl; % Ctrl, ABL1(F317L)-nonphosphorylated (kinases [6]; [9]): 93 % Ctrl; % Ctrl, ABL1(F317L)-phosphorylated (kinases [6]; [10]): 94 % Ctrl
